We go through eight compounds from US20200253978A1, “HETEROCYCLICS AS INHIBITORS OF FIBROBLAST GROWTH FACTOR RECEPTOR” (ADVENT PHARMA CO. LTD., priority 2017, published 2020).

pIC50: −log10 of the molar value.

Assay [1] deals with T1, BaF3 cells expressing Tel-FGFR-4 and luciferase (Homo sapiens, UniProt P22455).
T1 construct: Luciferase is co-expressed as a viability reporter and is not part of the key; P41212 (Transcription factor ETV6)
The assay can be described thus: BaF3 cellular growth inhibition assay, Tel-FGFR-4 and luciferase (Bright-Glo). It is filed as cell-based. The following applies: BaF3 Tel-FGFR-4 cells, 2 days incubation, 50% growth inhibition vs DMSO. On the procedure:
(§1) Compounds' inhibitory activities against FGFR-4 or FGFR-1 were measured in BaF3 cells expressing Tel-FGFR-4 and luciferase or Tel-FGFR-1 and luciferase, whose growth was dependent on FGFR-4 or FGFR-1 kinase but independent of IL-3. The cells were plated in 384-well plates in RPMI1640 with 10% FBS. Compounds were added as 11-point dilutions. Cell viability was determined by Bright-Glo luciferase assay (Promega) after cells were incubated with compounds for 2 days. The IC50 value was determined as the concentration for 50% growth inhibition compared to DMSO treated cells (A: IC50<0.1 μM; B: IC50 between 0.1 μM and 1 μM; C: IC50 between 1 μM and 10 μM).

Assay [2] concerns the target T2, BaF3 cells expressing Tel-FGFR-1 and luciferase (Homo sapiens, UniProt P11362).
T2 construct: Luciferase is co-expressed as a viability reporter and is not part of the key; P41212 (Transcription factor ETV6)
Put plainly: BaF3 cellular growth inhibition assay, Tel-FGFR-1 and luciferase (Bright-Glo). The settings on record: BaF3 Tel-FGFR-1 cells, 2 days incubation, 50% growth inhibition vs DMSO; numeric bounds. The class given is cell-based. On the procedure:
as §1

T1 sequence (P22455 467-755 limits assumed): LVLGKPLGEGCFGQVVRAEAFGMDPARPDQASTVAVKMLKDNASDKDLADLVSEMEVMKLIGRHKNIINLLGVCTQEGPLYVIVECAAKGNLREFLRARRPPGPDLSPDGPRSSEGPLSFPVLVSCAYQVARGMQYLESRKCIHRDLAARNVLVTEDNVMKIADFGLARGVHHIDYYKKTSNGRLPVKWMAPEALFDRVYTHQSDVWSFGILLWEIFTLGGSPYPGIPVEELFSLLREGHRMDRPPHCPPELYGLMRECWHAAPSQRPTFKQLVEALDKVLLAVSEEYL
T2 sequence (P11362 478-767 limits assumed): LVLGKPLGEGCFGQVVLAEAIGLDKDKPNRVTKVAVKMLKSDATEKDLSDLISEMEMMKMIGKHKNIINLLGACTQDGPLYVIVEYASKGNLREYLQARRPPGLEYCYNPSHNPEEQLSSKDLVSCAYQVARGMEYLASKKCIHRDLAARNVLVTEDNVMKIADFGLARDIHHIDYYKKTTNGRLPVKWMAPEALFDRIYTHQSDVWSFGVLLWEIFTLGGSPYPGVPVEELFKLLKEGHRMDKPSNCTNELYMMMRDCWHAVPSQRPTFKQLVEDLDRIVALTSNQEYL

In general, pIC50 refers to −log10 of the IC50, conventionally taken in molar units. High values mean a low IC50, low ones a high IC50. With `C=CC(=O)Nc1cccc(C(F)(F)F)c1Nc1cc2cc(C(=O)c3c(F)c(OC)cc(OC)c3F)oc2cn1` [Example 25, N-(2-((2-(2,6-difluoro-3,5-dimethoxybenzoyl)furo[2,3-c]pyridin-5-yl)amino)-3-(trifluoromethyl)phenyl)acrylamide], the pIC50 was 6.00 to 7.00 in assay [1] and less than 5.48 in assay [2].
Take `C=CC(=O)Nc1cccc(Cl)c1Nc1cc2cc(C(=O)c3c(F)c(OC)cc(OC)c3F)oc2cn1` [Example 26, N-(3-chloro-2-((2-(2,6-difluoro-3,5-dimethoxybenzoyl)furo[2,3-c]pyridin-5-yl)amino)phenyl)acrylamide]: the pIC50 was greater than 7.00 in assay [1] and less than 5.29 in assay [2].
Taken in the same sequence, the figures for `C=CC(=O)Nc1cc(N2CCN(CC)CC2)ccc1Nc1cc2cc(C(=O)Nc3c(F)c(OC)cc(OC)c3F)oc2cn1` [Example 32, 5-((2-acrylamido-4-(4-ethylpiperazin-1-yl)phenyl)amino)-N-(2,6-difluoro-3,5-dimethoxyphenyl)furo[2,3-c]pyridine-2-carboxamide] were 6.00 to 7.00 and less than 5.48.
On to `CCN1CCN(c2ccc(Nc3cc4cc(C(=O)c5c(F)c(OC)cc(OC)c5F)oc4cn3)c(NC(=O)/C=C\Cl)c2)CC1` [Example 33, (Z)-3-chloro-N-(2-((2-(2,6-difluoro-3,5-dimethoxybenzoyl)furo[2,3-c]pyridin-5-yl)amino)-5-(4-ethylpiperazin-1-yl)phenyl)acrylamide], for which the negative logarithm of the IC50 (pIC50) in assay [1] is greater than 7.00; in assay [2], less than 5.48.
Taken in the same sequence, the figures for `C=CC(=O)N[C@H]1CCOC[C@H]1Nc1ncc2oc(C(O)c3c(F)c(OC)cc(OC)c3F)cc2n1` (stereo partly drawn) [Example 34, N-((3S,4S)-3-((6-((2,6-difluoro-3,5-dimethoxyphenyl)(hydroxy)methyl)furo[3,2-d]pyrimidin-2-yl)amino)tetrahydro-2H-pyran-4-yl)acrylamide] were 5.00 to 6.00 and less than 5.00.
Taken in the same sequence, the figures for `C=CC(=O)N[C@H]1CCOC[C@H]1Nc1ncc2oc(C(=O)c3c(F)c(OC)cc(OC)c3F)cc2n1` [Example 35, N-((3S,4S)-3-((6-(2,6-difluoro-3,5-dimethoxybenzoyl)furo[3,2-d]pyrimidin-2-yl)amino)tetrahydro-2H-pyran-4-yl)acrylamide] were greater than 7.00 and less than 5.00.
For `C=CC(=O)Nc1cc(N2CCN(CC)CC2)ccc1Nc1cc2c(O)c(C(=O)c3c(F)c(OC)cc(OC)c3F)oc2cn1` [Example 36, N-(2-((2-(2,6-difluoro-3,5-dimethoxybenzoyl)-3-hydroxyfuro[2,3-c]pyridin-5-yl)amino)-5-(4-ethylpiperazin-1-yl)phenyl)acrylamide], the pIC50 in assay [1] is 5.00 to 6.00; in assay [2], less than 5.00.
For `C=CC(=O)N[C@H]1CCOC[C@H]1Nc1cc2cc(-c3c(Cl)c(OC)cc(OC)c3Cl)oc2cn1` [Example 37, N-((3S,4S)-3-((2-(2,6-dichloro-3,5-dimethoxyphenyl)furo[2,3-c]pyridin-5-yl)amino)tetrahydro-2H-pyran-4-yl)acrylamide], the pIC50 was 6.00 to 7.00 in assay [1] and less than 5.00 in assay [2].
